For test [1], the system named is GABAergic network of BENOs (GABAR). The test can be described thus: calcium imaging of BENO neuronal network under GABAergic inhibition. It is filed as cell-based, human. To be noted: for synchrony of the same neurons upon inhibitor washout: after picrotoxin 58 μM and saclofen 330 μM; for synchrony of previously spontaneously synchronized neurons under GABAR inhibition: picrotoxin 58 μM and saclofen 330 μM applied together, BENOs days 30-60, n=3, 4 pairs of cells. The method, then: To test neuronal network activity, BENOs (days 30-60) were subjected to calcium imaging under GABAergic inhibition (carried out using picrotoxin, 58 μM; saclofen, 330 μM; n=3). GABAR inhibition led to an asynchrony of previously spontaneously synchronized neurons (4 pairs of cells).

Test [2] deals with bioengineered neuronal organoids (BENOs) from human pluripotent stem cells. In words: qPCR transcript analysis of neuronal and glia markers in BENOs. It is filed as cell-based. Details: PAX6 transcripts: dose or concentration left out as unconfirmed. The method, then: (§1) In initial attempts, single SMAD pathway inhibition (using noggin) was employed to elicit neural induction, along with the addition of retinoic acid (RA). In the present study, it was tested whether dual SMAD signaling pathway inhibition using noggin and SB431542 during the neural induction phase (days 0-8) might further enhance neurogenesis, e.g., at day 28. Accordingly, NCM containing only noggin, or NCM containing noggin and SB431542, were each investigated.
Numerous conventional protocols in the literature employ neurotrophic factors BDNF and GDNF to improve neuronal survival at the differentiation and maturation stages. Therefore, it was tested whether the addition of BDNF (20 ng/ml) and GDNF (10 ng/ml) to NPEM during culture days 10-28 would result in a higher number of maturing neurons by day 28 (FIG. 4). […]
In all protocols, the differentiation was carried out in Neurobasal™ medium supplemented with B27 and N2. hiPS cells were subjected to neuroectoderm induction (days 0-8) under dual SMAD inhibition (noggin & SB431542) and additional retinoic acid (RA) supplementation to mimic signaling that occurs during embryonic neurogenesis. In protocol 2, the proliferative effects of FGF-2 (day 8-15) in neural progenitor cells (NPCs) were tested. In protocol 3, the effect of Notch inhibitor DAPT in neuronal commitment of NPCs (day 15-28) was tested. In protocol 4, the proliferative effects of TGF-beta 1 for glia cells (day 8-28) were tested. In protocol 5, TGF-beta 1 and DAPT treatments were combined in order to test whether development of glia and neurons can be enhanced simultaneously.
In order to assess the neurogenic and gliogenic potential afforded by the different protocols, tissues were collected at days −1, 0, 3, 8, 15, 28 and 40 (3-6 tissues/time point). Since the treatment until day 8 was identical for all protocols, tissues until that time point were only collected from protocol 1. […] Since treatment with DAPT (protocols 3 and 5) was evidently supporting neurogenesis and TGF-beta 1 appeared to support gliogenesis, the time course analysis was extended for protocol 3 (DAPT) and protocol 5 (DAPT and TGF-beta 1).

The test system is the same in test [3]. The test can be described thus: whole mount immunofluorescence (neurofilament) analysis of BENOs. In kind it is cell-based. The method, then:
as §1
Consequently, it appears advantageous to increase the amount of neural progenitor cells (NPCs) inside the tissue by treating the organoids with FGF-2 (days 8-15). This corresponds to the use of NPEM in the above protocol. To test whether the use of FGF-2 is favorable, tissues (3000 cell/μl) were treated with 10 ng/ml FGF-2 at two different time-points; day −2 to day 0 (before neural induction at the stem cell stage), and day 8 to day 15 at the NPC stage (FIG. 3B).

The mark [4] stands for this setting: SB431542 added to noggin during neural induction (days 0-8) vs noggin only, n=4 tissues/group.
[5] abbreviates: protocols 3 and 5, DAPT day 15-28, time course.
[6] abbreviates: BDNF (20 ng/ml) and GDNF (10 ng/ml) added together, culture days 10-28, analysed day 28.

With `NCC(CS(=O)(=O)O)c1ccc(Cl)cc1` (stereo not shown) [saclofen], in test [1], the “synchrony of the same neurons upon inhibitor washout” value is reported as “re-synchronized” and the “synchrony of previously spontaneously synchronized neurons under GABAR inhibition” value was “asynchrony”.

`NC(=O)c1ccc(-c2nc(-c3ccc4c(c3)OCO4)c(-c3ccccn3)[nH]2)cc1` [SB431542]: in test [2] (setting [4]), the “increase of neuronal marker MAP2 (qPCR)” value was determined as 21 fold and the “increase of neuronal marker PAX6 (qPCR)” value stood at 21 fold. Besides, in test [3] (dual SMAD inhibition, noggin and SB431542, days 0-8, vs noggin only, day 28), the “amount of maturing neurons (immunofluorescence and PAX6/MAP2 transcripts)” value was “clearly observed to be advantageous”.

Consider “TGF-beta 1: transforming growth factor beta 1 (Peprotech)”, for which, in test [2] (protocols 4 and 5, TGF-beta 1 day 8-28, by day 40, vs the other 3 protocols), the “amount of the glia marker GFAP” value is “higher amounts”.

Turning to `C[C@H](NC(=O)Cc1cc(F)cc(F)c1)C(=O)NC(C(=O)OC(C)(C)C)c1ccccc1` (stereo partly shown) [DAPT], the PAX6 transcripts entry in test [2] (DAPT added to NDM, day 15-28) was “increase”. In test [2] (setting [5]), the “amount of the neuronal marker GABBR2” value was “significantly increased”, the “amount of the neuronal marker GRIN1” value is recorded as “significantly increased”, the “amount of the neuronal marker MAP2” value was “significantly increased” and the “amount of the neuronal marker PAX 6” value is “significantly increased”.

Take “FGF-2: member of the fibroblast growth factor family, encoded by the FGF2 gene”: the “level of different markers (OCT4, GFAP, PAX6, MAP2, GRIN1, GABBR2) at any time point” value in test [2] (protocol 2, FGF-2 day 8-15, time course days -1 to 40) was “did not significantly influence”. The “neurofilament staining, double treatment vs single treatment” value in test [3] (10 ng/ml FGF-2, day -2-0 and days 8-15 vs days 8-15 only) is listed as “did not seem to be advantageous”. Further, the “neurofilament staining, advantage compared to untreated tissues” value in test [3] (10 ng/ml FGF-2, day -2 to day 0 (stem cell stage), read at day 28) was “did not appear to provide any advantage”. The “neuronal network complexity at day 28 (IF whole mount staining of neurofilament)” value in test [3] (10 ng/ml FGF-2, days 8-15) is “more complex neuronal networks”. Further, the “proliferation of the cells including NPCs” value in test [3] (10 ng/ml FGF-2, days 8-15 (NPC stage)) is “markedly induced proliferation”.

Turning to picrotoxin, in test [1], the “synchrony of the same neurons upon inhibitor washout” value is “re-synchronized” and the “synchrony of previously spontaneously synchronized neurons under GABAR inhibition” value is “asynchrony”.

B1: BDNF: neurotrophic factor used to improve neuronal survival (protein, UniProt P23560 129-247, looked up)
Neurotrophic factor BDNF: HSDPARRGELSVCDSISEWVTAADKKTAVDMSGGTVTVLEKVPVSKGQLKQYFYETKCNPMGYTKEGCRGIDKRHWNSQCRTTQSYVRALTMDSKKRIGWRFIRIDTSCVCTLTIKRGR
modifications: Neurotrophic factor BDNF
As to B1, in test [2] (setting [6]), the “amount of the maturation marker MAP2” value was “do not increase” and the “amount of the neuronal marker PAX 6” value is “do not increase”.

B2: GDNF: neurotrophic factor used to improve neuronal survival (protein, UniProt P39905 78-211, looked up)
Glial cell line-derived …: SPDKQMAVLPRRERNRQAAAANPENSRGKGRRGQRGKNRGCVLTAIHLNVTDLGLGYETKEELIFRYCSGSCDAAETTYDKILKNLSRNRRLVSDKVGQACCRPIAFDDDLSFLDDNLVYHILRKHSAKRCGCI
On to B2, for which, in test [2] (setting [6]), the “amount of the maturation marker MAP2” value was “do not increase” and the “amount of the neuronal marker PAX 6” value was “do not increase”.

The values are drawn from patent US20250067727A1, “BIOENGINEERED NEURONAL ORGANOIDS (BENOS) AND USES THEREOF” (Georg-August-Universität Göttingen Stiftung Öffentlichen …, priority 2017, published 2025).
